The values that follow come from patent US20230201157A1, “COMPOSITIONS OF CANNABINOIDS AND METHODS OF USING SAME” (ASANA BIO GROUP LTD., priority 2020, published 2023).

Molecules are shown by their SMILES.

Series [1] has as its system RAW 264.7 cells. Kind of series: MTT viability assay. Conditions: for cell viability: 50 µM of single cannabinoid (FIG. 1). In kind it is cell-based, mouse. As for the experimental part:
(§1) Cell lines were cultured according to standard mammalian tissue culture protocols and sterile technique. Adherent human epithelial endometriosis 12Z and mouse monocytes RAW 264.7 cell lines were cultured in high glucose Dulbecco’s Modified Eagle Medium (DMEM) supplemented with 1% sodium pyruvate. Human monocytes THP-1 cell line were cultured in RPMI medium 1640. All media was supplemented with 10% fetal bovine serum, streptomycin […], penicillin (100 U/ml) and Nystatin (12.5 U/ml). Cells were incubated in 5% CO2 at 37° C. All tissue culture cells were maintained in 75 cm^2 cell culture treated flask (Eppendorf) and all the media and supplements were obtained from Biological Industries. Treatment were performed by plating cells in a 96 micro well delta surface plates (Eppendorf) in a starting confluence of 1 × 10^4 cells/well.
The viability of the cells following treatment was determined using a commercially available MTT assay kit (Abcam, ab 146345) and performed according to manufacturer’s instructions. Briefly, cells were seeded in a 96-well plate at a density of 1 × 10^4 cells/well (n=4) in 100 µl cell specific media. After overnight plating, cells were exposed to varying concentrations of cannabis samples in 100 µl of specific media. Then, plates were incubated in a humidified atmosphere containing 5% CO2 in air at 37° C. for 24 hours. According to the MTT standard protocol, after 24 h treatment, the media was removed, and all cells were incubated with serum-free media containing 0.5 mg/ml MTT for 4 hours at the incubator. The MTT purple crystals formed by the viable cells were dissolved using isopropanol containing 0.04 mol/L HCl. The quantification was determined by measuring the optical density at 570 nm in a spectrophotometer reader (Spark, Tecan). Results were presented as proportional viability (%) by comparing between treated and untreated groups. Cytotoxic potential of an extract was determined according to the following criteria: Non-cytotoxic -Viability is ≥ 70% of vehicle control; Cytotoxic - Viability is reduced to less than 70% of vehicle control.

Series [2] concerns RAW 264.7 cells. Kind of series: Nitric oxide detection assay (Griess) in LPS-stimulated cells. The format is cell-based, mouse. Conditions: for nitric oxide production: 50 µM of single cannabinoid (FIG. 1); for nitric oxide production while minimally affecting cell viability: lower dose, 25 µM, compared with effect at 50 µM (FIG. 1). As for the experimental part: as §1
RAW 264.7 cells were seeded in a 96-well plate at a density of 1 × 10^4 cells/well (n=4) in 100 µl cell specific media (DMEM high glucose supplemented with 10% FBS, 1% PSN and 1% Sodium pyruvate). After 24 hours, cells were treated with varying concentrations of cannabis samples using specific media containing 5% FBS. After 1 hour, treated and untreated cells, were stimulated by Lipopolysaccharides (LPS) at a final concentration of 1 µg/ml. Cells supernatants were harvest after 24 h for nitric oxide radical (NO•) assay by addition of 50 µl of the supernatant to an equal volume of Griess reagent (1% sulfanilamide, 0.1% naphthalene diamine and 2% H3PO4). After 10 min of incubation, the resultant color was measured at 540 nm. Results were presented as proportional (%) by comparing between treated and untreated groups. Anti-inflammatory potential of an extract in preventing Nitric oxide production was determined by the ratio between nitric oxide and cell viability values: Ratio < 0.5 = High effect; Ratio between 0.5-0.7 = Moderate effect; Ratio […] = Low effect; and Ratio > 1 = No effect.
In general terms: Nitrite, measured by Griess reagent, commonly stands in for NO production.

As for `O=c1cc(-c2ccc(O)cc2)oc2cc(O)cc(O)c12` [Apigenin, apigenin], the “cell viability (exception to 'no substantial effect on cell viability')” value in the series on RAW 264.7 cells [1] (mouse, 24 h, 50 µM) was “excluding 50 µM of Apigenin”.
For the compound `CCCCCc1cc(O)c2c(c1)OC(C)(CCC=C(C)C)C=C2` (stereo not drawn) [CBC, cannabichromene], in the series on RAW 264.7 cells [1], the cell viability result is “minimally affecting cell viability or not affecting cell viability at all”. For the same compound, the nitric oxide production result with RAW 264.7 cells [2] is listed as “reduced nitric oxide production”.
With `CCCCCc1cc2c(c(O)c1C(=O)O)C=CC(C)(CCC=C(C)C)O2` (stereo not drawn) [CBCA, cannabichromenic acid], the cell viability result with RAW 264.7 cells [1] is “minimally affecting cell viability or not affecting cell viability at all”. In the series with RAW 264.7 cells [2], the nitric oxide production result was “reduced nitric oxide production” and the “nitric oxide production while minimally affecting cell viability” value is given as “comparable effect”.
Consider `CCCCCc1cc(O)c(C/C=C(\C)CCC=C(C)C)c(O)c1` [CBG, cannabigerol], for which the nitric oxide production result in the series with RAW 264.7 cells [2] was “reduced nitric oxide production”.
With `CCCCCc1cc(O)c2c(c1)OC(C)(C)c1ccc(C)cc1-2` [CBN, cannabinol], the cell viability result in the series on RAW 264.7 cells [1] is reported as “minimally affecting cell viability or not affecting cell viability at all”. Moreover, the nitric oxide production entry with RAW 264.7 cells [2] is listed as “reduced nitric oxide production”.
`CCCCCc1cc2c(c(O)c1C(=O)O)-c1cc(C)ccc1C(C)(C)O2` [CBNA, cannabinolic acid]: the cell viability entry in the series on RAW 264.7 cells [1] was “minimally affecting cell viability or not affecting cell viability at all”. Moreover, in the series on RAW 264.7 cells [2], the nitric oxide production entry is listed as “reduced nitric oxide production” and the “nitric oxide production while minimally affecting cell viability” value is “comparable effect”.
For the compound `CCCCCc1cc2c(c(O)c1C(=O)O)[C@@H]1C=C(C)CC[C@H]1C(C)(C)O2` [THCA, tetrahydrocannabinolic acid], the cell viability entry in the series on RAW 264.7 cells [1] is “minimally affecting cell viability or not affecting cell viability at all”. For the same compound, the nitric oxide production result in the series on RAW 264.7 cells [2] is “reduced nitric oxide production”.
For `CCCc1cc(O)c2c(c1)OC(C)(C)[C@@H]1CCC(C)=C[C@@H]21` [THCV, tetrahydrocannabivarin], in that order: “minimally affecting cell viability or not affecting cell viability at all” and “reduced nitric oxide production”.
For `CCCc1cc2c(c(O)c1C(=O)O)[C@@H]1C=C(C)CC[C@H]1C(C)(C)O2` [THCVA, tetrahydrocannabivarinic acid], in that order: “minimally affecting cell viability or not affecting cell viability at all” and “reduced nitric oxide production”.
